Experimental data as given in the NIST ThermoML archive (doi:10.1016/j.jct.2014.07.026).

Test: mn = molality of the nth substance listed, in mol/kg
Settings: 100 kPa, Liquid; for mass density: Vibrating tube method; for speed of sound: Frequency=2 MHz, Linear variable-path acoustic interferometer

CCCCn1cc[n+](C)c1.CC[C@H](C)[C@H](N)C(=O)[O-] [1-butyl-3-methyl-1H-imidazolium L-isoleucinate] + O
Settings | mass density [kg/m3] | speed of sound [m/s]
293.15 K, m1 = 0.02906 | 999.041 | –
293.15 K, m1 = 0.04398 | 999.456 | –
293.15 K, m1 = 0.05752 | 999.834 | –
293.15 K, m1 = 0.0722 | 1000.24 | –
293.15 K, m1 = 0.07899 | 1000.43 | –
293.15 K, m1 = 0.1182 | 1001.49 | –
293.15 K, m1 = 0.1456 | 1002.23 | –
293.15 K, m1 = 0.1662 | 1002.78 | –
293.15 K, m1 = 0.1765 | 1003.05 | –
293.15 K, m1 = 0.2502 | 1004.97 | –
293.15 K, m1 = 0.2937 | 1006.09 | –
293.15 K, m1 = 0.3356 | 1007.15 | –
293.15 K, m1 = 0.3802 | 1008.26 | –
298.15 K, m1 = 0.02906 | 997.851 | –
298.15 K, m1 = 0.04398 | 998.255 | –
298.15 K, m1 = 0.0472 | – | 1507.8
298.15 K, m1 = 0.05752 | 998.616 | –
298.15 K, m1 = 0.0722 | 999.019 | –
298.15 K, m1 = 0.07899 | 999.193 | –
298.15 K, m1 = 0.1029 | – | 1519.2
298.15 K, m1 = 0.1182 | 1000.22 | –
298.15 K, m1 = 0.1456 | 1000.93 | –
298.15 K, m1 = 0.1481 | – | 1528.4
298.15 K, m1 = 0.1662 | 1001.47 | –
298.15 K, m1 = 0.1765 | 1001.73 | –
298.15 K, m1 = 0.1974 | – | 1538.3
298.15 K, m1 = 0.2422 | – | 1547.2
298.15 K, m1 = 0.2502 | 1003.6 | –
298.15 K, m1 = 0.2927 | – | 1557.1
298.15 K, m1 = 0.2937 | 1004.66 | –
298.15 K, m1 = 0.3356 | 1005.72 | –
298.15 K, m1 = 0.3455 | – | 1567.6
298.15 K, m1 = 0.3802 | 1006.75 | –
298.15 K, m1 = 0.3987 | – | 1578.2
298.15 K, m1 = 0.4518 | – | 1588.5
298.15 K, m1 = 0.5064 | – | 1599.2
303.15 K, m1 = 0.02906 | 996.433 | –
303.15 K, m1 = 0.04398 | 996.821 | –
303.15 K, m1 = 0.05752 | 997.168 | –
303.15 K, m1 = 0.0722 | 997.554 | –
303.15 K, m1 = 0.07899 | 997.73 | –
303.15 K, m1 = 0.1182 | 998.731 | –
303.15 K, m1 = 0.1456 | 999.436 | –
303.15 K, m1 = 0.1662 | 999.965 | –
303.15 K, m1 = 0.1765 | 1000.2 | –
303.15 K, m1 = 0.2502 | 1002 | –
303.15 K, m1 = 0.2937 | 1003.05 | –
303.15 K, m1 = 0.3356 | 1004.06 | –
303.15 K, m1 = 0.3802 | 1005.08 | –
308.15 K, m1 = 0.03034 | 994.828 | –
308.15 K, m1 = 0.0467 | 995.242 | –
308.15 K, m1 = 0.05983 | 995.575 | –
308.15 K, m1 = 0.07535 | 995.962 | –
308.15 K, m1 = 0.09204 | 996.388 | –
308.15 K, m1 = 0.121 | 997.102 | –
308.15 K, m1 = 0.1452 | 997.702 | –
308.15 K, m1 = 0.1832 | 998.629 | –
308.15 K, m1 = 0.2191 | 999.468 | –
308.15 K, m1 = 0.2631 | 1000.51 | –
308.15 K, m1 = 0.2977 | 1001.31 | –
308.15 K, m1 = 0.3367 | 1002.21 | –
308.15 K, m1 = 0.3802 | 1003.17 | –
313.15 K, m1 = 0.03034 | 992.995 | –
313.15 K, m1 = 0.0467 | 993.401 | –
313.15 K, m1 = 0.05983 | 993.731 | –
313.15 K, m1 = 0.07535 | 994.106 | –
313.15 K, m1 = 0.09204 | 994.515 | –
313.15 K, m1 = 0.121 | 995.217 | –
313.15 K, m1 = 0.1452 | 995.792 | –
313.15 K, m1 = 0.1832 | 996.685 | –
313.15 K, m1 = 0.2191 | 997.538 | –
313.15 K, m1 = 0.2631 | 998.53 | –
313.15 K, m1 = 0.2977 | 999.299 | –
313.15 K, m1 = 0.3367 | 1000.18 | –
313.15 K, m1 = 0.3802 | 1001.15 | –

CC(C)C[C@H](N)C(=O)[O-].CCCCn1cc[n+](C)c1 [1-butyl-3-methylimidazolium L-leucinate] + O
Settings | mass density [kg/m3] | speed of sound [m/s]
293.15 K, m1 = 0.03697 | 999.215 | –
293.15 K, m1 = 0.05641 | 999.729 | –
293.15 K, m1 = 0.07287 | 1000.17 | –
293.15 K, m1 = 0.09146 | 1000.67 | –
293.15 K, m1 = 0.1132 | 1001.23 | –
293.15 K, m1 = 0.1544 | 1002.32 | –
293.15 K, m1 = 0.1911 | 1003.25 | –
293.15 K, m1 = 0.2335 | 1004.32 | –
293.15 K, m1 = 0.2827 | 1005.52 | –
293.15 K, m1 = 0.3424 | 1007.01 | –
293.15 K, m1 = 0.3957 | 1008.25 | –
293.15 K, m1 = 0.4527 | 1009.6 | –
293.15 K, m1 = 0.5127 | 1010.96 | –
298.15 K, m1 = 0.03697 | 998.03 | –
298.15 K, m1 = 0.04773 | – | 1507.7
298.15 K, m1 = 0.05641 | 998.525 | –
298.15 K, m1 = 0.07287 | 998.954 | –
298.15 K, m1 = 0.09146 | 999.435 | –
298.15 K, m1 = 0.1038 | – | 1519.1
298.15 K, m1 = 0.1132 | 999.978 | –
298.15 K, m1 = 0.1495 | – | 1528.5
298.15 K, m1 = 0.1544 | 1001.01 | –
298.15 K, m1 = 0.1911 | 1001.9 | –
298.15 K, m1 = 0.1994 | – | 1538.3
298.15 K, m1 = 0.2335 | 1002.93 | –
298.15 K, m1 = 0.2447 | – | 1547.3
298.15 K, m1 = 0.2827 | 1004.13 | –
298.15 K, m1 = 0.2957 | – | 1557.1
298.15 K, m1 = 0.3424 | 1005.51 | –
298.15 K, m1 = 0.3491 | – | 1567.5
298.15 K, m1 = 0.3957 | 1006.7 | –
298.15 K, m1 = 0.4035 | – | 1577.8
298.15 K, m1 = 0.4527 | 1008.01 | –
298.15 K, m1 = 0.4605 | – | 1588.7
298.15 K, m1 = 0.5127 | 1009.37 | –
298.15 K, m1 = 0.5164 | – | 1599.4
303.15 K, m1 = 0.03697 | 996.605 | –
303.15 K, m1 = 0.05641 | 997.088 | –
303.15 K, m1 = 0.07287 | 997.496 | –
303.15 K, m1 = 0.09146 | 997.966 | –
303.15 K, m1 = 0.1132 | 998.492 | –
303.15 K, m1 = 0.1544 | 999.496 | –
303.15 K, m1 = 0.1911 | 1000.35 | –
303.15 K, m1 = 0.2335 | 1001.35 | –
303.15 K, m1 = 0.2827 | 1002.52 | –
303.15 K, m1 = 0.3424 | 1003.84 | –
303.15 K, m1 = 0.3957 | 1005.02 | –
303.15 K, m1 = 0.4527 | 1006.25 | –
303.15 K, m1 = 0.5127 | 1007.54 | –
308.15 K, m1 = 0.03562 | 994.921 | –
308.15 K, m1 = 0.05661 | 995.428 | –
308.15 K, m1 = 0.07558 | 995.879 | –
308.15 K, m1 = 0.0961 | 996.37 | –
308.15 K, m1 = 0.114 | 996.791 | –
308.15 K, m1 = 0.1577 | 997.799 | –
308.15 K, m1 = 0.1946 | 998.637 | –
308.15 K, m1 = 0.2469 | 999.798 | –
308.15 K, m1 = 0.2813 | 1000.57 | –
308.15 K, m1 = 0.345 | 1001.95 | –
308.15 K, m1 = 0.3992 | 1003.13 | –
308.15 K, m1 = 0.4555 | 1004.31 | –
308.15 K, m1 = 0.5127 | 1005.43 | –
313.15 K, m1 = 0.03562 | 993.087 | –
313.15 K, m1 = 0.05661 | 993.589 | –
313.15 K, m1 = 0.07558 | 994.031 | –
313.15 K, m1 = 0.0961 | 994.501 | –
313.15 K, m1 = 0.114 | 994.919 | –
313.15 K, m1 = 0.1577 | 995.899 | –
313.15 K, m1 = 0.1946 | 996.701 | –
313.15 K, m1 = 0.2469 | 997.848 | –
313.15 K, m1 = 0.2813 | 998.573 | –
313.15 K, m1 = 0.345 | 999.913 | –
313.15 K, m1 = 0.3992 | 1001.03 | –
313.15 K, m1 = 0.4555 | 1002.11 | –
313.15 K, m1 = 0.5127 | 1003.22 | –
